Test results published in US7728106B2, “HIV-1 glycopeptides and derivatives; preparation and applications thereof” (University of Maryland Biotechnology Institute, priority 2005, dated 2010).

Columns and labels:
[1] = tested on: pronase (Actinase E); assay: Stability toward pronase digestion; assay type: in vitro ADME; settings: 40 μM peptide, phosphate buffer pH 7.4, 125 ng pronase, 40 minutes, 30° C.; HPLC; FIG. 7B
Description: (§1) FIG. 7A is a graph for digestion with furin, under reaction conditions involving a solution of each peptide (40 μM) in a phosphate buffer (pH 7.0, total 30 μl) incubated with 10 units of furin (Sigma; a unit being defined by the amount of furin that hydrolyzes one pmol substrate in 1 minute under the optimal condition) for 16 hours at 30° C., and the remaining starting peptide was quantified by HPLC and confirmed by ESI-MS determination. FIG. 7B is a graph for digestion with pronase under reaction conditions involving a solution of each peptide (40 μM) in a phosphate buffer (pH 7.4, total 100 μl) incubated with 125 ng of pronase (Sigma) for 40 minutes at 30° C., and the remaining starting peptide was quantified by HPLC and confirmed by ESI-MS determination.
(§2) Next, the stability of the V3 glycopeptides against pronase digestion was tested. The pronase (Actinase E, Sigma) is a mixture of at least three proteolytic activities.

[2] = biological target: T1, furin (Homo sapiens, UniProt P09958); assay: Stability toward furin digestion; assay type: in vitro ADME; settings: 40 μM peptide, phosphate buffer pH 7.0, 10 units furin, 16 hours, 30° C.; HPLC; FIG. 7A
T1 construct: purchased Sigma
Description: To test this, a quick experiment was performed on the resistance of the synthetic V3 glycopeptides against different proteases. The protease furin was reported to be able to cleave the V3 domain of gp120 at the sequence 302-312 [134-136]. Therefore, the stability of the synthetic glycopeptides toward furin digestion was initially examined. The enzyme was obtained from Sigma and the digestion was monitored by HPLC and ESI-MS analysis.
as §1, §2

T1 sequence (P09958 108-794, species assumed): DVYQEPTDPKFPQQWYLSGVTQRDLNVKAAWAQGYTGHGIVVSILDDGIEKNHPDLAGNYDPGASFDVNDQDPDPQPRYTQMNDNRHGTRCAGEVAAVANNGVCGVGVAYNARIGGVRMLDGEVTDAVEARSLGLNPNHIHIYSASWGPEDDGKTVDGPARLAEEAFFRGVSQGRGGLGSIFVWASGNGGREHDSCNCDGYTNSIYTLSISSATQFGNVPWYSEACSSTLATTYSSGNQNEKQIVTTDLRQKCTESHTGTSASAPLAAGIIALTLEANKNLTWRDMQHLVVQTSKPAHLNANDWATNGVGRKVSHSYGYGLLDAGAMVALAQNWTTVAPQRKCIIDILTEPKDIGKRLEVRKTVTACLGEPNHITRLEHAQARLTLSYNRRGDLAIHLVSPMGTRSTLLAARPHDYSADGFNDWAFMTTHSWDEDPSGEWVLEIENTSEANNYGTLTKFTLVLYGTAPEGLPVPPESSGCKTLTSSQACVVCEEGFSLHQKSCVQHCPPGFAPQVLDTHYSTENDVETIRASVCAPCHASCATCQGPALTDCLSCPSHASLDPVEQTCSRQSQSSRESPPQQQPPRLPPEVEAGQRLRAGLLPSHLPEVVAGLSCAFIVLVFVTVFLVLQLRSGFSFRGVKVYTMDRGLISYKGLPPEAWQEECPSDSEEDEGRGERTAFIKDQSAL

CC[C@H](C)[C@@H]1NC(=O)[C@H](CCCCN)NC(=O)CNC(=O)[C@H]([C@@H](C)CC)NC(=O)[C@H]([C@@H](C)O)NC(=O)[C@H](C(C)C)NC(=O)[C@H](Cc2ccccc2)NC(=O)[C@H](C)NC(=O)[C@H](CCCNC(=N)N)NC(=O)CNC(=O)[C@@H]2CCCN2C(=O)CNC(=O)[C@H](CCCNC(=N)N)NC(=O)[C@H](CCC(N)=O)NC(=O)[C@H]([C@@H](C)CC)NC(=O)[C@H](CCCNC(=N)N)NC(=O)[C@H]([C@@H](C)CC)NC(=O)[C@H](CCCNC(=N)N)NC(=O)[C@H](CCCCN)NC(=O)[C@H](CCCNC(=N)N)NC(=O)[C@H]([C@@H](C)O)NC(=O)[C@H](CC(N)=O)NC(=O)[C@H](CC(N)=O)NC(=O)[C@H](CC(N)=O)NC(=O)[C@@H]2CCCN2C(=O)[C@H](CCCNC(=N)N)NC(=O)[C@H]([C@@H](C)O)NC(=O)[C@@H](NC(=O)[C@H](CC(=O)N[C@@H]2O[C@H](CO)[C@@H](O[C@@H]3O[C@H](CO)[C@@H](O[C@@H]4O[C@H](CO[C@H]5O[C@H](CO)[C@@H](O)[C@H](O)[C@@H]5O)[C@@H](O)[C@H](O[C@H]5O[C@H](CO)[C@@H](O)[C@H](O)[C@@H]5O)[C@@H]4O)[C@H](O)[C@H]3NC(C)=O)[C@H](O)[C@H]2NC(C)=O)NC(=O)[C@@H](NC(=O)[C@H](CCC(=O)O)NC(=O)[C@@H](NC(=O)[C@H](CO)NC(=O)[C@@H](N)[C@@H](C)O)C(C)C)[C@@H](C)CC)CSSC[C@@H](C(=O)N[C@@H](CC(=O)N[C@@H]2O[C@H](CO)[C@@H](O[C@@H]3O[C@H](CO)[C@@H](O[C@@H]4O[C@H](CO[C@H]5O[C@H](CO)[C@@H](O)[C@H](O)[C@@H]5O)[C@@H](O)[C@H](O[C@H]5O[C@H](CO)[C@@H](O)[C@H](O)[C@@H]5O)[C@@H]4O)[C@H](O)[C@H]3NC(C)=O)[C@H](O)[C@H]2NC(C)=O)C(=O)N[C@H](C(=O)N[C@@H](CO)C(=O)N[C@@H](CCCNC(=N)N)C(=O)N[C@@H](C)C(N)=O)[C@@H](C)CC)NC(=O)[C@H](Cc2c[nH]cn2)NC(=O)[C@H](C)NC(=O)[C@H](CCC(N)=O)NC(=O)[C@H](CCCNC(=N)N)NC(=O)[C@H](CCSC)NC(=O)[C@H](CC(N)=O)NC(=O)CNC1=O [HB-V3-(G2M3)2]
stability toward pronase digestion (remaining starting peptide) [1]: most stable | stability toward furin digestion (remaining starting peptide) [2]: most stable
